Test results reported in patent US20230085307A1, “PYRIDAZINONE COMPOUND AND HERBICIDE” (NISSAN CHEMICAL CORPORATION, priority 2019, published 2023).

Tests used:
late watergrass [1] = assay: Test Example 1: herbicidal activity, application before weed generation under submerged conditions (Table 16, symbol A); assay type: in vivo, late watergrass (Echinochloa oryzicola); conditions: 320 g/ha applied herbicide
How it was run: (§1)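 Emulsion formulation, water-diluted to set dose, was put onto the flooded surface (4 cm depth, alluvial soil) the same day weeds were sown and 2.5-leaf rice transplanted. After 3 weeks at 25-30 °C under glass, each species was rated 0 (≤5% kill) to 5 (≥90% kill).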

Japanese bulrush [2] = assay: Test Example 1: herbicidal activity, application before weed generation under submerged conditions (Table 16, symbol B); assay type: in vivo, Japanese bulrush (Schoenoplectus juncoides); conditions: 320 g/ha applied herbicide
How it was run: as §1

oval-leafed pondweed [3] = assay: Test Example 1: herbicidal activity, application before weed generation under submerged conditions (Table 16, symbol C); assay type: in vivo, oval-leafed pondweed (Monochoria vaginalis); conditions: 320 g/ha applied herbicide
How it was run: as §1

late watergrass [4] = assay: Test Example 2: herbicidal activity, application during weed generation under submerged conditions (Table 17, symbol A); assay type: in vivo, late watergrass (Echinochloa oryzicola); conditions: AAH 320 g/ha; application during weed generation, submerged conditions
How it was run: (§2)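 3-wk visual-criteria score after one water-surface dose. Emulsion formulation, water-diluted to set rate; applied at 1–2 leaf stage; alluvial soil, 4 cm standing water; seeds co-sown; greenhouse 25–30° C.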

Japanese bulrush [5] = assay: Test Example 2: herbicidal activity, application during weed generation under submerged conditions (Table 17, symbol B); assay type: in vivo, Japanese bulrush (Schoenoplectus juncoides); conditions: AAH 320 g/ha; application during weed generation, submerged conditions
How it was run: as §2

oval-leafed pondweed [6] = assay: Test Example 2: herbicidal activity, application during weed generation under submerged conditions (Table 17, symbol C); assay type: in vivo, oval-leafed pondweed (Monochoria vaginalis); conditions: AAH 320 g/ha; application during weed generation, submerged conditions
How it was run: as §2

barnyard grass [7] = assay: Test Example 3: herbicidal effect by foliage application, Wagner pot (Table 18, symbol H); assay type: in vivo, barnyard grass (Echinochloa crus-galli)
How it was run: (§3)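 Plants were sown in alluvial soil held under 0.1–0.5 cm standing water and grown 14 days in a greenhouse at 25–30 °C. An emulsifiable formulation, water-diluted to the set dose, was then sprayed onto the foliage, and effects were scored three weeks later using previously defined criteria.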

Chinese sprangletop = assay: Test Example 3: herbicidal effect by foliage application, Wagner pot (Table 18, symbol D); assay type: in vivo, chinese sprangletop (Leptochloa chinensis)
How it was run: as §3

rice flat sedge = assay: Test Example 3: herbicidal effect by foliage application, Wagner pot (Table 18, symbol E); assay type: in vivo, rice flat sedge (Cyperus iria)
How it was run: as §3

southern crabgrass [8] = assay: Test Example 4: herbicidal effect by soil treatment (Table 19, symbol F); assay type: in vivo, southern crabgrass (Digitaria ciliaris); conditions: amount of applied herbicide 320 g/ha
How it was run: (§4)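 Scoring uses the grading scale of an earlier test, three weeks post-application. Treatment consists of spraying a diluted emulsion formulation across the surface of sterilized diluvial soil in which seeds are buried near 1.5 cm deep; boxes are kept in a greenhouse between 25° C. and 30° C.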

green foxtail [9] = assay: Test Example 4: herbicidal effect by soil treatment (Table 19, symbol G); assay type: in vivo, green foxtail (Setaria viridis); conditions: amount of applied herbicide 320 g/ha
How it was run: as §4

barnyard grass [10] = assay: Test Example 4: herbicidal effect by soil treatment (Table 19, symbol H); assay type: in vivo, barnyard grass (Echinochloa crus-galli); conditions: amount of applied herbicide 320 g/ha
How it was run: as §4

wild oat [11] = assay: Test Example 4: herbicidal effect by soil treatment (Table 19, symbol I); assay type: in vivo, wild oat (Avena fatua); conditions: amount of applied herbicide 320 g/ha
How it was run: as §4

blackgrass [12] = assay: Test Example 4: herbicidal effect by soil treatment (Table 19, symbol J); assay type: in vivo, blackgrass (Alopecurus myosuroides); conditions: amount of applied herbicide 320 g/ha
How it was run: as §4

Italian ryegrass [13] = assay: Test Example 4: herbicidal effect by soil treatment (Table 19, symbol K); assay type: in vivo, Italian ryegrass (Lolium multiflorum); conditions: amount of applied herbicide 320 g/ha
How it was run: as §4

windgrass [14] = assay: Test Example 4: herbicidal effect by soil treatment (Table 19, symbol L); assay type: in vivo, windgrass (Apera spica-venti); conditions: amount of applied herbicide 320 g/ha
How it was run: as §4

velvetleaf [15] = assay: Test Example 4: herbicidal effect by soil treatment (Table 19, symbol M); assay type: in vivo, velvetleaf (Abutilon theophrasti); conditions: amount of applied herbicide 320 g/ha
How it was run: as §4

redroot pigweed [16] = assay: Test Example 4: herbicidal effect by soil treatment (Table 19, symbol N); assay type: in vivo, redroot pigweed (Amaranthus retroflexus); conditions: amount of applied herbicide 320 g/ha
How it was run: as §4

lambsquarters [17] = assay: Test Example 4: herbicidal effect by soil treatment (Table 19, symbol O); assay type: in vivo, lambsquarters (Chenopodium album); conditions: amount of applied herbicide 320 g/ha
How it was run: as §4

chickweed [18] = assay: Test Example 4: herbicidal effect by soil treatment (Table 19, symbol P); assay type: in vivo, common chickweed (Stellaria media); conditions: amount of applied herbicide 320 g/ha
How it was run: as §4

persian speedwell [19] = assay: Test Example 4: herbicidal effect by soil treatment (Table 19, symbol R); assay type: in vivo, Persian speedwell (Veronica persica); conditions: amount of applied herbicide 320 g/ha
How it was run: as §4

southern crabgrass [20] = assay: Test Example 5: herbicidal effect by foliage application, plastic box (Table 20, symbol F); assay type: in vivo, southern crabgrass (Digitaria ciliaris); conditions: amount of applied herbicide 320 g/ha; foliage application after 14-day growth; evaluated three weeks after application
How it was run: (§5)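 Post-emergence foliar test in sterilized diluvial soil. Compound applied as water-diluted emulsion at a predetermined rate to 14-day-old plants; evaluation at three weeks.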

green foxtail [21] = assay: Test Example 5: herbicidal effect by foliage application, plastic box (Table 20, symbol G); assay type: in vivo, green foxtail (Setaria viridis); conditions: amount of applied herbicide 320 g/ha; foliage application after 14-day growth; evaluated three weeks after application
How it was run: as §5

barnyard grass [22] = assay: Test Example 5: herbicidal effect by foliage application, plastic box (Table 20, symbol H); assay type: in vivo, barnyard grass (Echinochloa crus-galli); conditions: amount of applied herbicide 320 g/ha; foliage application after 14-day growth; evaluated three weeks after application
How it was run: as §5

wild oat [23] = assay: Test Example 5: herbicidal effect by foliage application, plastic box (Table 20, symbol I); assay type: in vivo, wild oat (Avena fatua); conditions: amount of applied herbicide 320 g/ha; foliage application after 14-day growth; evaluated three weeks after application
How it was run: as §5

blackgrass [24] = assay: Test Example 5: herbicidal effect by foliage application, plastic box (Table 20, symbol J); assay type: in vivo, blackgrass (Alopecurus myosuroides); conditions: amount of applied herbicide 320 g/ha; foliage application after 14-day growth; evaluated three weeks after application
How it was run: as §5

Italian ryegrass [25] = assay: Test Example 5: herbicidal effect by foliage application, plastic box (Table 20, symbol K); assay type: in vivo, Italian ryegrass (Lolium multiflorum); conditions: amount of applied herbicide 320 g/ha; foliage application after 14-day growth; evaluated three weeks after application
How it was run: as §5

windgrass [26] = assay: Test Example 5: herbicidal effect by foliage application, plastic box (Table 20, symbol L); assay type: in vivo, windgrass (Apera spica-venti); conditions: amount of applied herbicide 320 g/ha; foliage application after 14-day growth; evaluated three weeks after application
How it was run: as §5

velvetleaf [27] = assay: Test Example 5: herbicidal effect by foliage application, plastic box (Table 20, symbol M); assay type: in vivo, velvetleaf (Abutilon theophrasti); conditions: amount of applied herbicide 320 g/ha; foliage application after 14-day growth; evaluated three weeks after application
How it was run: as §5

redroot pigweed [28] = assay: Test Example 5: herbicidal effect by foliage application, plastic box (Table 20, symbol N); assay type: in vivo, redroot pigweed (Amaranthus retroflexus); conditions: amount of applied herbicide 320 g/ha; foliage application after 14-day growth; evaluated three weeks after application
How it was run: as §5

lambsquarters [29] = assay: Test Example 5: herbicidal effect by foliage application, plastic box (Table 20, symbol O); assay type: in vivo, lambsquarters (Chenopodium album); conditions: amount of applied herbicide 320 g/ha; foliage application after 14-day growth; evaluated three weeks after application
How it was run: as §5

chickweed [30] = assay: Test Example 5: herbicidal effect by foliage application, plastic box (Table 20, symbol P); assay type: in vivo, common chickweed (Stellaria media); conditions: amount of applied herbicide 320 g/ha; foliage application after 14-day growth; evaluated three weeks after application
How it was run: as §5

persian speedwell [31] = assay: Test Example 5: herbicidal effect by foliage application, plastic box (Table 20, symbol R); assay type: in vivo, Persian speedwell (Veronica persica); conditions: amount of applied herbicide 320 g/ha; foliage application after 14-day growth; evaluated three weeks after application
How it was run: as §5

[32] = amount of applied herbicide 320 g/ha

## Cc1nn(C)c(=O)c(-c2c(-c3ccc(CS(C)(=O)=O)cc3)sc3ccc(F)cc23)c1O [2-334]
Late watergrass [1]
  Herbicidal effect on A: late watergrass (grade 0-5): 3 (Herbicidal rate of 40% or more and less than 70%)
Japanese bulrush [2]
  Herbicidal effect on B: Japanese bulrush (grade 0-5): 0 (Herbicidal rate of 5% or less (almost no effect))
oval-leafed pondweed [3]
  Herbicidal effect on C: oval-leafed pondweed (grade 0-5): 0 (Herbicidal rate of 5% or less (almost no effect))
Late watergrass [4]
  herbicidal effect rating, A: late watergrass: 3 (Herbicidal rate of 40% or more and less than 70%)
Japanese bulrush [5]
  herbicidal effect rating, B: Japanese bulrush: 0 (Herbicidal rate of 5% or less (almost no effect))
oval-leafed pondweed [6]
  herbicidal effect rating, C: oval-leafed pondweed: 0 (Herbicidal rate of 5% or less (almost no effect))
Barnyard grass [7]; [32]
  herbicidal effect on H: barnyard grass: 5 (Herbicidal rate of 90% or more (almost completely withered))
Chinese sprangletop; [32]
  herbicidal effect on D: Chinese sprangletop: 4 (Herbicidal rate of 70% or more and less than 90%)
Rice flat sedge; [32]
  herbicidal effect on E: rice flat sedge: 5 (Herbicidal rate of 90% or more (almost completely withered))

## Cc1nn(C)c(=O)c(-c2c(-c3ccccc3OC(F)F)sc3cc(F)c(F)cc23)c1O [5-021]
Late watergrass [4]
  herbicidal effect rating, A: late watergrass: 0 (Herbicidal rate of 5% or less (almost no effect))
Japanese bulrush [5]
  herbicidal effect rating, B: Japanese bulrush: 2 (Herbicidal rate of 20% or more and less than 40%)
oval-leafed pondweed [6]
  herbicidal effect rating, C: oval-leafed pondweed: 0 (Herbicidal rate of 5% or less (almost no effect))
Barnyard grass [7]; 320 g/ha
  herbicidal effect on barnyard grass (H): 4 (Herbicidal rate of 70% or more and less than 90%)
Chinese sprangletop; 320 g/ha
  herbicidal effect on Chinese sprangletop (D): 3 (Herbicidal rate of 40% or more and less than 70%)
Rice flat sedge; 320 g/ha
  herbicidal effect on rice flat sedge (E): 5 (Herbicidal rate of 90% or more (almost completely withered))
Southern crabgrass [8]
  F: southern crabgrass, herbicidal effect grade: 5 (Herbicidal rate of 90% or more (almost completely withered))
Green foxtail [9]
  G: green foxtail, herbicidal effect grade: 5 (Herbicidal rate of 90% or more (almost completely withered))
Barnyard grass [10]
  H: barnyard grass, herbicidal effect grade: 4 (Herbicidal rate of 70% or more and less than 90%)
Wild oat [11]
  I: wild oat, herbicidal effect grade: 0 (Herbicidal rate of 5% or less (almost no effect))
Blackgrass [12]
  J: blackgrass, herbicidal effect grade: 0 (Herbicidal rate of 5% or less (almost no effect))
Italian ryegrass [13]
  K: Italian ryegrass, herbicidal effect grade: 0 (Herbicidal rate of 5% or less (almost no effect))
Windgrass [14]
  L: windgrass, herbicidal effect grade: 4 (Herbicidal rate of 70% or more and less than 90%)
Velvetleaf [15]
  M: velvetleaf, herbicidal effect grade: 4 (Herbicidal rate of 70% or more and less than 90%)
Redroot pigweed [16]
  N: redroot pigweed, herbicidal effect grade: 4 (Herbicidal rate of 70% or more and less than 90%)
Lambsquarters [17]
  O: lambsquarters, herbicidal effect grade: 3 (Herbicidal rate of 40% or more and less than 70%)
Chickweed [18]
  P: chickweed, herbicidal effect grade: 2 (Herbicidal rate of 20% or more and less than 40%)
Persian speedwell [19]
  R: persian speedwell, herbicidal effect grade: 5 (Herbicidal rate of 90% or more (almost completely withered))
Southern crabgrass [20]
  Herbicidal effect by foliage application, F: southern crabgrass: 5 (Herbicidal rate of 90% or more (almost completely withered))
Green foxtail [21]
  Herbicidal effect by foliage application, G: green foxtail: 5 (Herbicidal rate of 90% or more (almost completely withered))
Barnyard grass [22]
  Herbicidal effect by foliage application, H: barnyard grass: 4 (Herbicidal rate of 70% or more and less than 90%)
Wild oat [23]
  Herbicidal effect by foliage application, I: wild oat: 2 (Herbicidal rate of 20% or more and less than 40%)
Blackgrass [24]
  Herbicidal effect by foliage application, J: blackgrass: 4 (Herbicidal rate of 70% or more and less than 90%)
Italian ryegrass [25]
  Herbicidal effect by foliage application, K: Italian ryegrass: 4 (Herbicidal rate of 70% or more and less than 90%)
Windgrass [26]
  Herbicidal effect by foliage application, L: windgrass: 5 (Herbicidal rate of 90% or more (almost completely withered))
Velvetleaf [27]
  Herbicidal effect by foliage application, M: velvetleaf: 5 (Herbicidal rate of 90% or more (almost completely withered))
Redroot pigweed [28]
  Herbicidal effect by foliage application, N: redroot pigweed: 4 (Herbicidal rate of 70% or more and less than 90%)
Lambsquarters [29]
  Herbicidal effect by foliage application, O: lambsquarters: 3 (Herbicidal rate of 40% or more and less than 70%)
Chickweed [30]
  Herbicidal effect by foliage application, P: chickweed: 5 (Herbicidal rate of 90% or more (almost completely withered))
Persian speedwell [31]
  Herbicidal effect by foliage application, R: persian speedwell: 5 (Herbicidal rate of 90% or more (almost completely withered))
